According to patent US20240158370A1, “CK1 alpha AND DUAL CK1 alpha / GSPT1 DEGRADING COMPOUNDS” (Innovo Therapeutics, Inc., priority 2022, published 2024):

Legend:
GSPT1 = GSPT1 (Homo sapiens, UniProt P15170+Q96SW2); assay: HiBiT degradation assay, GSPT1, Procedure A; type: cell-based; parameters: HiBit-GSPT1 KI HEK293(LgBit) Cells; host or cells: HEK293(LgBit) knock-in cells; conditions: six hours incubation
How it was run: (§1)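 10-pt dose response, 10–0.005 μM, 0.1% DMSO; cells 1×10^6/ml in DMEM/10% FBS, 6 h, 37° C; HiBiT lytic detection, luminescence; DC50 + Ymin by 4-parameter fit.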

CK1α = target: T1, CK1α (Homo sapiens, UniProt P48729+Q96SW2); assay: HiBiT degradation assay, CK1α, Procedure A; type: cell-based; conditions: six hours incubation
T1 construct: CSNK1A1-HiBit KI HEK293(LgBit) Cells; host or cells: HEK293(LgBit) knock-in cells
T1 sequence (P48729 whole entry): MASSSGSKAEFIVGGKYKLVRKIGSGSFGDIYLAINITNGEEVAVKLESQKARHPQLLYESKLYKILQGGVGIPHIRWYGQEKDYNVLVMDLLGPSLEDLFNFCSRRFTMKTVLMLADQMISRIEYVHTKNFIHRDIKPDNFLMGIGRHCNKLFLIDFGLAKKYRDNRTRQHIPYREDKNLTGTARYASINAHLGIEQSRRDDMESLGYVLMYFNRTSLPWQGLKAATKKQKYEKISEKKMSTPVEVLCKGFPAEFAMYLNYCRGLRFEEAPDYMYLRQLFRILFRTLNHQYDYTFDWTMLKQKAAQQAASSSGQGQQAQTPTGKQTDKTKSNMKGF
T1 sequence (Q96SW2 whole entry): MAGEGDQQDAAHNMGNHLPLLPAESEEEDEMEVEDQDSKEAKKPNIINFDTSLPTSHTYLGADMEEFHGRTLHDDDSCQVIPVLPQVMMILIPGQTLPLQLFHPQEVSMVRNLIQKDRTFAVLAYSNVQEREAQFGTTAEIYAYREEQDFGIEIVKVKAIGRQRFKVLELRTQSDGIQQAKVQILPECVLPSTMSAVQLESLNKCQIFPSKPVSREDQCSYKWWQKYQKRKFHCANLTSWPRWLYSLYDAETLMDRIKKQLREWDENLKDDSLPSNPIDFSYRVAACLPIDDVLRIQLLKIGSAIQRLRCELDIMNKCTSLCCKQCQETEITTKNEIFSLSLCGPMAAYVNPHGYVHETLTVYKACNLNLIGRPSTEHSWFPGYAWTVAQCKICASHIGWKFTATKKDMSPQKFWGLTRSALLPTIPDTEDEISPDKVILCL
T1 sequence (Q16531 whole entry partner): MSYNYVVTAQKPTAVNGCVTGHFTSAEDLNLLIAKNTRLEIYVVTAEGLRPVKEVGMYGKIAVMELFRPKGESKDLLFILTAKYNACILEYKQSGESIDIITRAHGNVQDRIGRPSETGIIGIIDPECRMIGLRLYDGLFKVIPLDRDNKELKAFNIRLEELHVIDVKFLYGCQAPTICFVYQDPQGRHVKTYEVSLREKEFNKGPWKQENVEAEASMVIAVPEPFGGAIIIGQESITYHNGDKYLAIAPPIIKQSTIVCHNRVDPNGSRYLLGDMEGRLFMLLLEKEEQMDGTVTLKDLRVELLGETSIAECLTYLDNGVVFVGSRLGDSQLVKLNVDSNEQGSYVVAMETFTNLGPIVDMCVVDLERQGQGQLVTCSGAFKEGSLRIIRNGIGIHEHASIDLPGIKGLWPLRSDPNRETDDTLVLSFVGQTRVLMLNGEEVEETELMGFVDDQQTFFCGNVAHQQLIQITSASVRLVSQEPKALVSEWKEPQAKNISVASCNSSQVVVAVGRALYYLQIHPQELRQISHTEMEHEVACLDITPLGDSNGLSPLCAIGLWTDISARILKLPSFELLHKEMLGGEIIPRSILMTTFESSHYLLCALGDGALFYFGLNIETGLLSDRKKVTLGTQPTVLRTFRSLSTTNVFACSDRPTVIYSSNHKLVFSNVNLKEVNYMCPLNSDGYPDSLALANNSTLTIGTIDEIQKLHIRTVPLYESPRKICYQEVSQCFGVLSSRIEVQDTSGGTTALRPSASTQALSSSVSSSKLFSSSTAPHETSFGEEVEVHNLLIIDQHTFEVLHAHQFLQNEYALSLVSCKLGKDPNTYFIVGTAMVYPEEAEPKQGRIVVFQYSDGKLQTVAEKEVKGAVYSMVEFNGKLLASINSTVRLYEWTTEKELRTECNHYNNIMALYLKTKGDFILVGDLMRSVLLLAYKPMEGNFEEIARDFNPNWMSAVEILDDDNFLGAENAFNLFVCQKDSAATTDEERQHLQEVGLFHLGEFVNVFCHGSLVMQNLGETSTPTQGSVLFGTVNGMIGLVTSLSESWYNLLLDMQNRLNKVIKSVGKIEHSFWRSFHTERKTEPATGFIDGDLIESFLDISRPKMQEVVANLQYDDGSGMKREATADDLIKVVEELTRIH
How it was run: as §1

Chain of GSPT1 (P15170 whole entry): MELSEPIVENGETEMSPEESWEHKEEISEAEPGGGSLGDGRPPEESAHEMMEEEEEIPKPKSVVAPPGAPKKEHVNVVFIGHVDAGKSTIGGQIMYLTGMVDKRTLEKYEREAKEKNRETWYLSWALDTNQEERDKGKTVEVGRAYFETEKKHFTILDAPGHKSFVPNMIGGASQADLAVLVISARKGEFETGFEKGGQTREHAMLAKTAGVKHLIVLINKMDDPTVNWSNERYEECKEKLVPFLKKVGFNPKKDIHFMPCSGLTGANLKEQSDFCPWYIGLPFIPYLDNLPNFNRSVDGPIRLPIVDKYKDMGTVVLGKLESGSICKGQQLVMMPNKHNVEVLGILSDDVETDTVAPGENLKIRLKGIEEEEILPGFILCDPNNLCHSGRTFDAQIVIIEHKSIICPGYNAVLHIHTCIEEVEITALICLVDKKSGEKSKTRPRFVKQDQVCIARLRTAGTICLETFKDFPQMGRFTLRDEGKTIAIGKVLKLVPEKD
Chain of GSPT1 (Q96SW2 whole entry): as the sequence (Q96SW2 whole entry) above
Chain of GSPT1 (Q16531 whole entry partner): as the sequence (Q16531 whole entry partner) above

SMILES	DC50 (GSPT1)	GSPT1 Ymin (GSPT1)	CK1α Ymin (CK1α)	DC50 (CK1α)
Cn1ncc(-c2ccc3c(c2)CN(C2CCC(=O)NC2=O)C3=O)c1-c1ccccc1N (stereo not shown) [Example 127]	≥ 25 nM	F (F = >75-100% remaining)	E (E = >25-75% remaining)	< 25 nM
Cc1csc(-c2c(-c3ccc4c(c3)CN(C3CCC(=O)NC3=O)C4=O)cnn2C)c1 (stereo not shown) [Example 128]	≥ 25 nM	F (F = >75-100% remaining)	D (D = >10- 25% remaining)	< 25 nM
Cn1ncc(-c2ccc3c(c2)CN(C2CCC(=O)NC2=O)C3=O)c1-c1cccc(Cl)c1 (stereo not shown) [Example 129]	≥ 25 nM	F (F = >75-100% remaining)	E (E = >25-75% remaining)	< 25 nM
Cn1ncc(-c2ccc3c(c2)CN(C2CCC(=O)NC2=O)C3=O)c1-c1ccc(F)cc1F (stereo not shown) [Example 130]	≥ 25 nM	F (F = >75-100% remaining)	E (E = >25-75% remaining)	< 25 nM
Cn1ncc(-c2ccc3c(c2)CN(C2CCC(=O)NC2=O)C3=O)c1-c1ccsc1Cl (stereo not shown) [Example 131]	≥ 25 nM	F (F = >75-100% remaining)	E (E = >25-75% remaining)	< 25 nM
Cn1ncc(-c2ccc3c(c2)CN(C2CCC(=O)NC2=O)C3=O)c1-c1ccccc1Cl (stereo not shown) [Example 132]	≥ 25 nM	F (F = >75-100% remaining)	E (E = >25-75% remaining)	< 25 nM
Cn1ncc(-c2ccc3c(c2)CN(C2CCC(=O)NC2=O)C3=O)c1-c1ccc2ccccc2c1 (stereo not shown) [Example 136]	≥ 25 nM	F (F = >75-100% remaining)	D (D = >10- 25% remaining)	< 25 nM
COc1ccc(C)cc1-c1c(-c2ccc3c(c2)CN(C2CCC(=O)NC2=O)C3=O)cnn1C (stereo not shown) [Example 137]	< 25 nM	F (F = >75-100% remaining)	E (E = >25-75% remaining)	< 25 nM
Cn1ncc(-c2ccc3c(c2)CN(C2CCC(=O)NC2=O)C3=O)c1-c1cc(F)cc(F)c1 (stereo not shown) [Example 139]	< 25 nM	F (F = >75-100% remaining)	E (E = >25-75% remaining)	≥ 25 nM
CN(C)C(=O)c1cccc(-c2c(-c3ccc4c(c3)CN(C3CCC(=O)NC3=O)C4=O)cnn2C)c1 (stereo not shown) [Example 140]	< 25 nM	E (E = >25-75% remaining)	E (E = >25-75% remaining)	≥ 25 nM
COCc1ccc(-c2c(-c3ccc4c(c3)CN(C3CCC(=O)NC3=O)C4=O)cnn2C)cc1 (stereo not shown) [Example 141]	≥ 25 nM	F (F = >75-100% remaining)	E (E = >25-75% remaining)	< 25 nM

Now from value to compound:

DC50 (GSPT1)	GSPT1 Ymin (GSPT1)	CK1α Ymin (CK1α)	DC50 (CK1α)	SMILES
≥ 25 nM	F (F = >75-100% remaining)	D (D = >10- 25% remaining)	< 25 nM	Cc1ccsc1-c1c(-c2ccc3c(c2)CN(C2CCC(=O)NC2=O)C3=O)cnn1C (stereo not shown) [Example 126]
≥ 25 nM	F (F = >75-100% remaining)	E (E = >25-75% remaining)	≥ 25 nM	Cn1ncc(-c2ccc3c(c2)CN(C2CCC(=O)NC2=O)C3=O)c1-c1ccc(Oc2cccnc2)cc1 (stereo not shown) [Example 133]
≥ 25 nM	F (F = >75-100% remaining)	E (E = >25-75% remaining)	< 25 nM	Cn1ncc(-c2ccc3c(c2)CN(C2CCC(=O)NC2=O)C3=O)c1-c1ccc(F)c(F)c1 (stereo not shown) [Example 134]
≥ 25 nM	F (F = >75-100% remaining)	E (E = >25-75% remaining)	< 25 nM	Cn1ncc(-c2ccc3c(c2)CN(C2CCC(=O)NC2=O)C3=O)c1-c1cccc(F)c1 (stereo not shown) [Example 135]
< 25 nM	F (F = >75-100% remaining)	E (E = >25-75% remaining)	≥ 25 nM	Cn1ncc(-c2ccc3c(c2)CN(C2CCC(=O)NC2=O)C3=O)c1-c1cccc(C(N)=O)c1 (stereo not shown) [Example 138]
